From patent US12240812B2, “Compound for inhibiting PGE2/EP4 signaling transduction inhibiting, preparation method therefor, and medical uses thereof” (Keythera (Suzhou) Pharmaceuticals Co. Ltd., priority 2019, dated 2025)
pIC50: −log10 of the molar value.

tested on: PGE2/EP4 signal transduction in MCF7 cells; test: Determination of MCF7 cAMP (PGE2-stimulated, HTRF); format: cell-based; details: Homo sapiens; MCF7 cells, 10 nM PGE2 stimulation, cAMP HTRF; read-out: MCF7 cAMP IC50
Protocol: • a) MCF7 cells (ATCC, 6000 cells/well/40 μl) were inoculated into a 384-well cell culture plate containing a medium (DMEM containing 10% FBS and 1×PS), and incubated overnight at 37° C. and 5% CO2. • b) The medium was removed, 40 μl/well of serum-free medium was added, and the cells were incubated at 37° C. and 5% CO2 for 5 hours. • c) The medium was replaced with 18 μL/well of HBSS buffer (Hepes 20 mM, 0.1% BSA, 500 μM IBMX). • d) The compound in DMSO was diluted (1/5 dilution, 9+0 dose). • e) 2 μL of the compound in d) was added to 98 μL of HBSS buffer. • f) 1 μL/well of the diluted compound in e) was added to the cells, with a final starting concentration of 1 μM, and the cells were incubated at 37° C. for 1 hour. • g) The cells were stimulated with 1 μL/well of PGE2 (10 mM DMSO stock solution) (final concentration: 10 nM, and DMSO final concentration: 0.2%), and incubated at 37° C. for 30 minutes. • h) After the incubation, 10 μL/well of cAMP-d2 and 10 μL/well of anti-cAMP were added, RT 1 h. • i) HTRF signals (665 nm/615 nm) were read on Envision. Data Analysis: • High control: 1 μM E7046 • Low control: DMSO • Background: 30 μL/well of lysis buffer+10 μL/well of anti-cAMP • Analytical data: original date—background Inhibition %: 100−100×(high control−analytical data)/(high control−low control)

| Compound | pIC50 |
| --- | --- |
| O=C(NC1(C23CC(C(=O)O)(C2)C3)CC1)c1cncc2ccn(Cc3cc4cc(C(F)(F)F)ccc4o3)c12 [Compound 28, 3-(1-(1-((5-(Trifluoromethyl)benzofuran-2-yl)methyl)-1H-pyrrolo[3,2-c]pyridine-7-carboxamido)cyclopropyl)bicyclo[1.1.1] pentane-1-carboxylic acid] | 8.82 |
| C[C@H](NC(=O)c1cccc2ccn(Cc3cc4ccccc4o3)c12)C12CC(C(=O)O)(C1)C2 [Compound 20-5, (S)-3-(1-(1-(benzofuran-2-ylmethyl)-1H-indole-7-carboxamido)ethyl)bicyclo[1.1.1]pentane-1-carboxylic acid] | 7.85 |
| [2H]C(c1cc2ccccc2o1)n1ccc2cccc(C(=O)NC3(C45CC(C(=O)O)(C4)C5)CC3)c21 (centres unmarked) [Compound 29, 3-(1-(1-(Benzofuran-2-ylmethyl-d)-1H-indole-7-carboxamido)cyclopropyl)bicyclo[1.1.1]pentane-1-carboxylic acid] | 8.82 |
| C[C@@H](NC(=O)c1cccc2ccn(Cc3cc4ccccc4o3)c12)C12CC(C(=O)O)(C1)C2 [Compound 20-6, (R)-3-(1-(1-(benzofuran-2-ylmethyl)-1H-indole-7-carboxamido)ethyl)bicyclo[1.1.1]pentane-1-carboxylic acid] | 7.11 |
| O=C(NC1(C23CC(C(=O)O)(C2)C3)CC1)c1cccc2ccn(Cc3ccc(-c4ccccn4)cn3)c12 [Compound 11, 3-(1-(1-([2,3′-Bipyridin]-6′-ylmethyl)-1H-indole-7-carboxamido)cyclopropyl)bicyclo[1.1.1]pentane-1-carboxylic acid] | 7.52 |
| O=C(NC1(C23CC(C(=O)O)(C2)C3)CC1)c1cncc2ccn(Cc3cc4cc(F)ccc4o3)c12 [Compound 27, 3-(1-(1-((5-Fluorobenzofuran-2-yl)methyl)-1H-pyrrolo[3,2-c]pyridine-7-carboxamido)cyclopropyl)bicyclo[1.1.1]pentane-1-carboxylic acid] | 8.92 |
| O=C(NC1(C23CC(C(=O)O)(C2)C3)CC1)c1cccc2ccn(Cc3ccc(-c4cccnc4)cn3)c12 [Compound 12, 3-(1-(1-([3,3′-Bipyridin]-6-ylmethyl)-1H-indole-7-carboxamido)cyclopropyl)bicyclo[1.1.1]pentane-1-carboxylic acid] | 7.20 |
| [2H]C1([2H])C([2H])([2H])C1(NC(=O)c1cccc2ccn(Cc3cc4ccccc4o3)c12)C12CC(C(=O)O)(C1)C2 [Compound 31] | 8.92 |
| O=C(NC1(C23CC(C(=O)O)(C2)C3)CC1)c1cccc2ccn(Cc3ccc(C4CC4)cn3)c12 [Compound 18, 3-(1-(1-((5-Cyclopropylpyridin-2-yl)methyl)-1H-indole-7-carboxamido)cyclopropyl)bicyclo[1.1.1]pentane-1-carboxylic acid] | 7.20 |
| C[C@@H](NC(=O)c1cncc2ccn(Cc3cc4ccccc4o3)c12)C12CC(C(=O)O)(C1)C2 [Compound 26-2, (R)-3-(1-(1-(benzofuran-2-ylmethyl)-1H-pyrrolo[3,2-c]pyridine-7-carboxamido)ethyl)bicyclo[1.1.1]pentane-1-carboxylic acid] | < 7.00 |
| O=C(NC1(C23CC(C(=O)O)(C2)C3)CC1)c1cccc2ccn(Cc3ccc(N4CCOCC4)cn3)c12 [Compound 10, 3-(1-(1-((5-Morpholinopyridin-2-yl)methyl)-1H-indole-7-carboxamido)cyclopropyl)bicyclo[1.1.1]pentane-1-carboxylic acid] | 7.14 |
| O=C(NC1(C23CC(C(=O)O)(C2)C3)CC1)c1cccc2ccn(Cc3ccc(-c4cn[nH]c4)cn3)c12 [Compound 15, 3-(1-(1-((5-(1H-Pyrazol-4-yl)pyridin-2-yl)methyl)-1H-indole-7-carboxamido)cyclopropyl) bicyclo[1.1.1]pentane-1-carboxylic acid] | 7.84 |
| O=C(NC1(C23CC(C(=O)O)(C2)C3)CC1)c1cccc2ccn(Cc3cc4ccc(F)cc4o3)c12 [Compound 22, 3-(1-(1-((6-Fluorobenzofuran-2-yl)methyl)-1H-indole-7-carboxamido)cyclopropyl)bicyclo[1.1.1]pentane-1-carboxylic acid] | 8.85 |
| O=C(NC1(C23CC(C(=O)O)(C2)C3)CC1)c1cccc2ccn(Cc3ccc(N4CCCC(O)C4)cn3)c12 (centres unmarked) [Compound 17, 3-(1-(1-((5-(3-Hydroxypiperidin-1-yl)pyridin-2-yl)methyl)-1H-indole-7-carboxamido)cyclopropyl)bicyclo[1.1.1]pentane-1-carboxylic acid] | 7.46 |
| CC(NC(=O)c1cncc2ccn(Cc3cc4ccccc4o3)c12)C12CC(C(=O)O)(C1)C2 (racemic) [Compound 26, 3-(1-(1-(Benzofuran-2-ylmethyl)-1H-pyrrolo[3,2-c]pyridine-7-carboxamido)ethyl)bicyclo[1.1.1]pentane-1-carboxylic acid] | 7.22 |
| O=C(NC1(C23CC(C(=O)O)(C2)C3)CC1)c1cccc2ccn(Cc3ccc(-c4ccncc4)cn3)c12 [Compound 13, 3-(1-(1-([3,4′-Bipyridin]-6-ylmethyl)-1H-indole-7-carboxamido)cyclopropyl)bicyclo[1.1.1]pentane-1-carboxylic acid] | 7.94 |
| [2H]C([2H])(c1cc2ccccc2o1)n1ccc2cccc(C(=O)NC3(C45CC(C(=O)O)(C4)C5)CC3)c21 [Compound 30, 3-(1-(1-(1-Benzofuran-2-ylmethyl-d2)-1H-indole-7-carboxamido)cyclopropyl)bicyclo[1.1.1]pentane-1-carboxylic acid] | 8.96 |
| O=C(NC1(C23CC(C(=O)O)(C2)C3)CC1)c1cc(F)cc2ccn(Cc3cc4ccccc4o3)c12 [Compound 32] | 9.12 |
| O=C(NC1(C23CC(C(=O)O)(C2)C3)CC1)c1cccc2ccn(Cc3ccc(-c4ccccc4)nc3)c12 [Compound 5, 3-(1-(1-((6-Phenylpyridin-3-yl)methyl)-1H-indole-7-carboxamido)cyclopropyl)bicyclo[1.1.1]pentane-1-carboxylic acid] | 8.26 |
| O=C(NC1(C23CC(C(=O)O)(C2)C3)CC1)c1cccc2ccn(Cc3ccc(-c4ccccc4CO)cn3)c12 [Compound 19, 3-(1-(1-((5-(2-(Hydroxymethyl)phenyl)pyridin-2-yl)methyl)-1H-indole-7-carboxamido)cyclopropyl)bicyclo[1.1.1]pentane-1-carboxylic acid] | 6.97 |
| O=C(NC1(C23CC(C(=O)O)(C2)C3)CC1)c1cccc2ccn(Cc3nc4ccccc4s3)c12 [Compound 24, 3-(1-(1-(Benzo[d]thiazol-2-ylmethyl)-1H-indole-7-carboxamido)cyclopropyl)bicyclo[1.1.1]pentane-1-carboxylic acid] | 7.92 |
| CC(NC(=O)c1cccc2ccn(Cc3cc4ccccc4o3)c12)C12CC(C(=O)O)(C1)C2 (racemic) [Compound 20, 3-(1-(1-(Benzofuran-2-ylmethyl)-1H-indole-7-carboxamido)ethyl)bicyclo[1.1.1]pentane-1-carboxylic acid] | 7.47 |
| O=C(NC1(C23CC(C(=O)O)(C2)C3)CC1)c1cccc2ccn(Cc3ccc(Cl)cc3)c12 [Compound 4, 3-(1-(1-(4-Chlorobenzyl)-1H-indole-7-carboxamido)cyclopropyl)bicyclo[1.1.1]pentane-1-carboxylic acid] | 7.21 |
| O=C(NC1(C23CC(C(=O)O)(C2)C3)CC1)c1cc(Cl)cc2ccn(Cc3ccc(C(F)(F)F)cc3)c12 [Compound 8, 3-(1-(5-Chloro-1-(4-(trifluoromethyl)benzyl)-1H-indole-7-carboxamido)cyclopropyl)bicyclo[1.1.1]pentane-1-carboxylic acid] | 8.54 |
| O=C(NC1(C23CC(C(=O)O)(C2)C3)CC1)c1cccc2ccn(Cc3ccc4ccccc4n3)c12 [Compound 3, 3-(1-(1-(Quinolin-2-ylmethyl)-1H-indole-7-carboxamido)cyclopropyl)bicyclo[1.1.1]pentane-1-carboxylic acid] | 8.11 |
| Cn1cc(-c2ccc(Cn3ccc4cccc(C(=O)NC5(C67CC(C(=O)O)(C6)C7)CC5)c43)nc2)cn1 [Compound 14, 3-(1-(1-((5-(1-Methyl-1H-pyrazol-4-yl)pyridin-2-yl)methyl)-1H-indole-7-carboxamido)cyclopropyl)bicyclo[1.1.1]pentane-1-carboxylic acid] | 7.61 |
| O=C(NC1(C23CC(C(=O)O)(C2)C3)CC1)c1cccc2ccn(Cc3ccc(-c4cnn(CCCO)c4)cn3)c12 [Compound 16, 3-(1-(1-((5-(1-(3-Hydroxypropyl)-1H-pyrazol-4-yl)pyridin-2-yl)methyl)-1H-indole-7-carboxamido)cyclopropyl)bicyclo[1.1.1]pentane-1-carboxylic acid] | 6.67 |
| C[C@H](NC(=O)c1cncc2ccn(Cc3cc4ccccc4o3)c12)C12CC(C(=O)O)(C1)C2 [Compound 26-1, (S)-3-(1-(1-(benzofuran-2-ylmethyl)-1H-pyrrolo[3,2-c]pyridine-7-carboxamido)ethyl)bicyclo[1.1.1]pentane-1-carboxylic acid] | 7.52 |
| O=C(NC1(C23CC(C(=O)O)(C2)C3)CC1)c1cccc2ccn(Cc3nc4ccccc4o3)c12 [Compound 23, 3-(1-(1-(Benzo[d]oxazol-2-ylmethyl)-1H-indole-7-carboxamido)cyclopropyl)bicyclo[1.1.1]pentane-1-carboxylic acid] | 8.10 |
